Like-named read-outs stand apart in the source and are kept apart here.
Experiments:
Experiment in all cases: Test C pre/postemergence
Assay type in all cases: in vivo
[1] = test system: goosegrass (Eleusine indica); settings: Eleusine indica; for pest or weed control at 62 g/ha: 62 g ai/ha; for pest or weed control at 125 g/ha: 125 g ai/ha
Summary of the method: (§1)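 Percent control is a visual rating (0 none, 100 complete) taken against untreated plants after 12 to 14 days of greenhouse growth. Applications were made preemergence to seeded pots and postemergence to plants at the 1- to 4-leaf stage, in a non-phytotoxic surfactant-containing solvent.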

[2] = test system: kochia (Kochia scoparia); settings: Bassia scoparia; for pest or weed control at 16 g/ha: 16 g ai/ha; for pest or weed control at 31 g/ha: 31 g ai/ha; for pest or weed control at 62 g/ha: 62 g ai/ha; for pest or weed control at 125 g/ha: 125 g ai/ha
Summary of the method: as §1

[3] = test system: lambsquarters (Chenopodium album); settings: Chenopodium album; for pest or weed control at 16 g/ha: 16 g ai/ha; for pest or weed control at 31 g/ha: 31 g ai/ha; for pest or weed control at 62 g/ha: 62 g ai/ha; for pest or weed control at 125 g/ha: 125 g ai/ha
Summary of the method: as §1

[4] = test system: pigweed (Amaranthus retroflexus); settings: Amaranthus retroflexus; for pest or weed control at 16 g/ha: 16 g ai/ha; for pest or weed control at 31 g/ha: 31 g ai/ha; for pest or weed control at 62 g/ha: 62 g ai/ha
Summary of the method: as §1

[5] = test system: velvetleaf (Abutilon theophrasti); settings: Abutilon theophrasti; for pest or weed control at 16 g/ha: 16 g ai/ha; for pest or weed control at 31 g/ha: 31 g ai/ha; for pest or weed control at 62 g/ha: 62 g ai/ha
Summary of the method: as §1

[6] = test system: yellow nutsedge (Cyperus esculentus); settings: Cyperus; for pest or weed control at 16 g/ha: 16 g ai/ha; for pest or weed control at 31 g/ha: 31 g ai/ha; for pest or weed control at 62 g/ha: 62 g ai/ha
Summary of the method: as §1

[7] = post-emergence, Postemergence, read-out: Plant response rating (scale of 0 to 100), Kochia
[8] = pre-emergence, Preemergence, scale 0 to 100, 0 no effect, 100 complete control, read-out: Plant response rating, Kochia
[9] = post-emergence, Postemergence, read-out: Plant response rating (scale of 0 to 100), Lambsquarters
[10] = pre-emergence, Preemergence, scale 0 to 100, 0 no effect, 100 complete control, read-out: Plant response rating, Lambsquarters
[11] = post-emergence, Postemergence, read-out: Plant response rating (scale of 0 to 100), Pigweed
[12] = pre-emergence, Preemergence, scale 0 to 100, 0 no effect, 100 complete control, read-out: Plant response rating, Pigweed
[13] = post-emergence, Postemergence, read-out: Plant response rating (scale of 0 to 100), Velvetleaf
[14] = pre-emergence, Preemergence, scale 0 to 100, 0 no effect, 100 complete control, read-out: Plant response rating, Velvetleaf
[15] = post-emergence, Postemergence, read-out: Plant response rating (scale of 0 to 100), Nutsedge, Yellow
[16] = pre-emergence, Preemergence, scale 0 to 100, 0 no effect, 100 complete control, read-out: Plant response rating, Nutsedge, Yellow

## Nc1nc(-c2ccc(Cl)cc2)nc(C(=O)O)c1Cl [Compound 65, 6-amino-5-chloro-2-(4-chlorophenyl)-4-pyrimidinecarboxylic acid]
[1]; post-emergence, Postemergence, read-out: Plant response rating (scale of 0 to 100), Goosegrass
  pest or weed control at 62 g/ha: 70%
[1]; post-emergence, Postemergence, scale 0 to 100 (0 no effect, 100 complete control), read-out: Goosegrass plant response rating
  pest or weed control at 125 g/ha: 70%
[1]; pre-emergence, Preemergence, 16 g ai/ha, scale 0 to 100, 0 no effect, 100 complete control, read-out: Plant response rating, Goosegrass
  pest or weed control at 16 g/ha: 0%
[1]; pre-emergence, Preemergence, 31 g ai/ha, scale 0 to 100, 0 no effect, 100 complete control, read-out: Plant response rating, Goosegrass
  pest or weed control at 31 g/ha: 0%
[1]; pre-emergence, Preemergence, scale 0 to 100, 0 no effect, 100 complete control, read-out: Plant response rating, Goosegrass
  pest or weed control at 62 g/ha: 0%
[1]; pre-emergence, Preemergence, scale 0 to 100, read-out: Plant response rating, Goosegrass
  pest or weed control at 125 g/ha: 50%
[2]; [7]
  pest or weed control at 16 g/ha: 85%
  pest or weed control at 31 g/ha: 85%
  pest or weed control at 62 g/ha: 85%
[2]; post-emergence, Postemergence, scale 0 to 100 (0 no effect, 100 complete control), read-out: Kochia plant response rating
  pest or weed control at 125 g/ha: 90%
[2]; [8]
  pest or weed control at 16 g/ha: 0%
  pest or weed control at 31 g/ha: 0%
  pest or weed control at 62 g/ha: 50%
[2]; pre-emergence, Preemergence, scale 0 to 100, read-out: Plant response rating, Kochia
  pest or weed control at 125 g/ha: 70%
[3]; [9]
  pest or weed control at 16 g/ha: 85%
  pest or weed control at 31 g/ha: 90%
  pest or weed control at 62 g/ha: 90%
[3]; post-emergence, Postemergence, scale 0 to 100 (0 no effect, 100 complete control), read-out: Lambsquarters plant response rating
  pest or weed control at 125 g/ha: 95%
[3]; [10]
  pest or weed control at 16 g/ha: 0%
  pest or weed control at 31 g/ha: 50%
  pest or weed control at 62 g/ha: 80%
[3]; pre-emergence, Preemergence, scale 0 to 100, read-out: Plant response rating, Lambsquarters
  pest or weed control at 125 g/ha: 100%
[4]; [11]
  pest or weed control at 16 g/ha: 90%
  pest or weed control at 31 g/ha: 90%
  pest or weed control at 62 g/ha: 100%
[4]; post-emergence, Postemergence, 125 g ai/ha, scale 0 to 100 (0 no effect, 100 complete control), read-out: Pigweed plant response rating
  pest or weed control at 125 g/ha: 100%
[4]; [12]
  pest or weed control at 16 g/ha: 40%
  pest or weed control at 31 g/ha: 80%
  pest or weed control at 62 g/ha: 80%
[5]; [13]
  pest or weed control at 16 g/ha: 65%
  pest or weed control at 31 g/ha: 80%
  pest or weed control at 62 g/ha: 80%
[5]; post-emergence, Postemergence, 125 g ai/ha, scale 0 to 100 (0 no effect, 100 complete control), read-out: Velvetleaf plant response rating
  pest or weed control at 125 g/ha: 90%
[5]; [14]
  pest or weed control at 16 g/ha: 0%
  pest or weed control at 31 g/ha: 40%
  pest or weed control at 62 g/ha: 80%
[6]; [15]
  pest or weed control at 16 g/ha: 0%
  pest or weed control at 31 g/ha: 0%
  pest or weed control at 62 g/ha: 20%
[6]; post-emergence, Postemergence, 125 g ai/ha, scale 0 to 100 (0 no effect, 100 complete control), read-out: Nutsedge, Yellow plant response rating
  pest or weed control at 125 g/ha: 50%
[6]; [16]
  pest or weed control at 16 g/ha: 0%
  pest or weed control at 31 g/ha: 0%
  pest or weed control at 62 g/ha: 30%

From patent US8802597B2, “Herbicidal pyrimidines” (E I du Pont de Nemours and Company, priority 2003, dated 2014)
